≈ marks a conversion by molar mass, not a printed value.
Legend:
T. gondii [1] = settings: ref Zhang J. et al., 2019; cited from earlier work
T. gondii [2] = tested on: T. gondii; set-up: method as in Zhang J. et al., 2019; settings: 50 mg/kg.bw; ref Zhang J. et al., 2019; cited from earlier work
[3] = tested on: T. gondii tachyzoites (strain RH) in HFFs; test: In vitro screening of anti-T. gondii activity (Giemsa staining, qPCR); type: cell-based, Toxoplasma gondii; settings: 24 h
Method: Human foreskin fibroblasts were seeded in 6-well plates and infected with 3 × 10^4 fresh T. gondii tachyzoites. After 8 h, the natural compounds in DMEM supplemented with 1% FBS were added. Sulfadiazine and pyrimethamine were included as positive drug controls. After incubation for 24 h, the cells were washed twice with PBS, stained with Giemsa, and observed by light microscopy. In addition, total DNA was isolated from the cells using DNAiso Reagent (Takara), and a 529-bp repeat element was amplified by quantitative polymerase chain reaction (qPCR) with the following primers: Tox-F (5′-AGGAGAGATATCAGGACTGTAG-3′), Tox-R (5′-GCGTCGTCTCGTCTAGATCG-3′), and the Taqman probe Tox-TP (6-Fam CCGGCTTGGCTGCTTTTCCT BHQ1), as described in a previous study ([Zhang J.L. et al., 2019]). The inhibition rates against T. gondii proliferation for the natural compounds at concentrations with no HFF toxicity were calculated, and the inhibition rate in each treatment group was presented as the % of the control group. The experiment was repeated three times.

[4] = tested on: T. gondii tachyzoite intracellular proliferation in HFFs; test: Anti-proliferation activity of licarin-B (qPCR); type: cell-based, Toxoplasma gondii; settings: 24 h
Method: DMEM without drugs was used as a parasite control. […] After 24 h, the cells were washed twice with PBS, and total genomic DNA from the cells was obtained as described in a previous study ([Zhang J.L. et al., 2019]). […] The results represent the means ± standard deviations (SD) from at least three independent experiments. The EC50 of licarin-B for tachyzoite growth inhibition was plotted as a function of the compound concentration via non-linear curve analysis using SPSS 19.0 software (SPSS Inc., Chicago, IL, United States). The results of the anti-invasion and anti-proliferation tests, the in vivo assays of the survival rate and parasite burden and data comparisons between the parasite control and treatment groups were statistically analyzed by one-way analysis of variance (ANOVA) using SPSS software.

[5] = tested on: T. gondii invasion of HFFs; test: Anti-invasion assessment in vitro (qPCR); type: cell-based, Toxoplasma gondii; settings: 4.5–22.5 μg/mL, 2 h of infection
Method: Human foreskin fibroblasts were seeded in 6-well plates and incubated with different concentrations of licarin-B (4.5, 9, 13.5, 18, or 22.5 μg/mL), sulfadiazine (0.4 μg/mL, as a positive control) or without drugs in DMEM supplemented with 1% FBS and then infected with 3 × 10^6 fresh parasites per well. The anti-invasion capability of licarin-B was determined by qPCR after 2 h of infection, as described in a previous study ([Zhang J.L. et al., 2019]). Triplicate independent experiments were performed.

T. gondii tachyzoites [6] = test: In vivo survival of acutely infected mice; set-up: species or system BALB/c mice; settings: 30-day test period
Method: The therapeutic effect on acute infection was evaluated as described by Zhang; female BALB/c mice were divided into four groups consisting of 10 mice each, and each mouse was injected with 2 × 10^3 tachyzoites by intraperitoneal injection. Then, the mice were treated with licarin-B (25 or 50 mg/kg⋅bw), the positive drugs (100 mg/kg⋅bw sulfadiazine, 50 mg/kg⋅bw pyrimethamine, or 15 mg/kg⋅bw folinic acid) or PBS (as control) ([Si et al., 2018]). Positive drugs were administered by oral administration, and licarin-B was administered by intraperitoneal injection. […] The survival times of the infected mice and the number of deaths were monitored and recorded twice daily for 30 days.

T. gondii tachyzoites [7] = test: In vivo parasite burden in tissues and blood (qPCR); set-up: species or system BALB/c mice; settings: 50 mg/kg⋅bw, acutely infected mice
Method: To evaluate the therapeutic effect of licarin-B on acute infection, mice were infected intraperitoneally with 1 × 10^4 tachyzoites and then divided into three groups (six mice/group) for treatment with PBS (as a parasite control), licarin-B (50 mg/kg⋅bw), or a positive control drug, as described above ([Zhang J.L. et al., 2019]). The treatments were administered for 4 consecutive days, and then, the number of parasites in the tissue and blood samples were deduced from standard curves constructed using known numbers of tachyzoites, as previously described.

[8] = Dose safety assessment in vivo; settings: mice treated with the tested doses (25 or 50 mg/kg⋅bw) for 30 days
Method: Dose safety assessment in vivo was performed to determine safe doses of licarin-B, as previously described.

[9] = tested on: extracellular T. gondii tachyzoites; test: Flow cytometry analysis of T. gondii survival (annexin V-PE / 7-AAD); type: cell-based, Toxoplasma gondii; settings: 24 h
Method: Approximately 1 × 10^6 extracellular tachyzoites were incubated with licarin-B (18 or 36 μg/mL) in DMEM or with no drug as a control for 24 h, followed by centrifugation at 1,500 × g for 10 min. The samples were washed with PBS and suspended in 100 μL of binding buffer with 5 μL of annexin V-PE and 5 μL of 7-AAD dye in the dark for 20 min at 37°C. Double mixtures were acquired and analyzed by flow cytometry (BD FACSVerse, United States) ([Giovati et al., 2018]). The experiment was repeated three times.

[10] = tested on: T. gondii tachyzoites in HFFs; test: Transmission electron microscopy of tachyzoites; type: cell-based, Toxoplasma gondii; settings: 18 μg/mL
Method: For transmission electron microscopy (TEM) analysis, HFFs were seeded to confluence in T25 flasks and infected with 1.5 × 10^6 T. gondii tachyzoites for 8 h. After the addition of 18 μg/mL licarin-B, the cells were cultured for 4, 8, or 16 h, digested with TrypLE Express for 2 min, washed twice with PBS, fixed with 2.5% glutaraldehyde at 4°C for 12 h, washed with PBS to remove glutaraldehyde and post-fixed with 1% osmium acid solution for 1.5 h in the dark. The samples were then washed with PBS, dehydrated in a graded alcohol series, dehydrated in acetone and embedded in Epon. Ultrathin sections were stained with uranyl acetate and lead citrate and observed under a transmission electron microscope (Tecnai Spirit Bio-TWIN, Thermo Fisher Scientific, FEI, United States).

[11] = tested on: extracellular T. gondii tachyzoites; test: MitoTracker Red CMXRos staining (mitochondrial membrane potential); type: cell-based, Toxoplasma gondii
Method: Extracellular parasites (1 × 10^5 per group) were incubated in DMEM with licarin-B (18 μg/mL) for 4, 8, or 16 h at 37°C; with licarin-B (18, 27, or 36 μg/mL) for 8 h at 37°C; or without any drug (as a control). Then, all the samples were stained with the MitoTracker Red CMXRos probe (50 nM, Invitrogen, United States) for 20 min. ([Zhang J.L. et al., 2019]). The fluorescence intensity was observed by laser confocal microscopy (ZEISS LSM-800, Jena, Germany).

T. gondii tachyzoites [12] = test: Monodansylcadaverine (MDC) staining of autophagosomes; type: cell-based, Toxoplasma gondii
Method: For each sample, approximately 1 × 10^5 tachyzoites were treated with licarin-B (18 μg/mL) in DMEM for 4, 8, or 16 h at 37°C; licarin-B (18, 27, or 36 μg/mL) in DMEM for 8 h at 37°C; or no drug (as a control) in DMEM. Then, the samples were washed with PBS (pH 7.4), suspended in monodansylcadaverine (MDC) working solution (100 μM) at 37°C for 1 h after centrifugation, and washed twice with PBS. The tachyzoites were resuspended in 500 μL of PBS, and the fluorescence in each group was visualized by laser scanning confocal microscopy.

[13] = tested on: extracellular T. gondii tachyzoites; test: DAPI staining of the nucleus; type: cell-based, Toxoplasma gondii; settings: 18, 27, or 36 μg/mL for 16 h
Method: Extracellular parasites (1 × 10^5 per group) were incubated in DMEM with licarin-B (18, 27, or 36 μg/mL) or without any drug (as a control) for 16 h at 37°C. All the samples were stained with 4′,6-diamidino-2-phenylindole (DAPI) at 37°C for 10 min, and fluorescence intensity was observed by laser confocal microscopy.

SMILES: C=CCc1cc(OC)c(O[C@@H](C)[C@H](O)c2ccc(O)c(OC)c2)c(OC)c1 [myrislignan]
- EC50, anti-T. gondii activity (T. gondii [1]): 32.41 µg/mL (≈ 86.6 µM)
- Survival rate in mice upon acute infection (T. gondii [2]): 50%

SMILES: C/C=C/c1cc(OC)c2c(c1)C(C)[C@@H](c1ccc3c(c1)OCO3)O2 (stereo partly drawn) [Licarin-B, 5-[(2S)-2,3-D\dihydro-7-methoxy-3β-methyl-5-[(E)-1-propenyl]benzofuran-2-yl]-1,3-benzodioxole]
- Mean inhibition rate (% of control) ([3]; 200 μg/mL, T. gondii proliferation in HFFs): 99.76 ± 5.81%
- Parasitophorous vacuoles (PVs) in host cells ([3]; Giemsa staining, maximum concentration safe for HFFs (licarin-B 200 μg/mL)): no parasitophorous vacuoles (PVs) in host cells
- Inhibition of T. gondii tachyzoite intracellular proliferation vs control ([4]; 4.5–45 μg/mL): significantly (p < 0.01) inhibited T. gondii tachyzoite intracellular proliferation in a concentration-dependent manner
- EC50 for T. gondii tachyzoite growth inhibition ([4]; intracellular proliferation in HFFs): 14.05 ± 3.96 µg/mL
- Inhibition of T. gondii invasion vs control [5]: significantly (p < 0.01) inhibited T. gondii invasion
- Survival rate of infected mice (T. gondii tachyzoites [6]; 25 mg/kg⋅bw intraperitoneal once daily for 15 days): 60%
- Survival rate of infected mice (T. gondii tachyzoites [6]; 50 mg/kg⋅bw intraperitoneal once daily for 15 days): 90%
- Parasite loads in the blood and brain, liver, and spleen tissues vs parasite control (T. gondii tachyzoites [7]): significantly (p < 0.01) reduced the parasite loads
- Clinical toxicity [8]: no discernible clinical toxicity was observed
- T. gondii survival rate ([9]; 18 μg/mL): approximately 45%
- T. gondii survival rate ([9]; 36 μg/mL): ~26%
- Ultrastructural changes in tachyzoites (TEM) ([10]; 4 h): slight mitochondrial swelling and a double membrane structure
- Ultrastructural changes in tachyzoites (TEM) ([10]; 8 h): mitochondrial swelling, cristae disruption, vacuole formation, and an autophagy-like double membrane structure in the cytoplasm
- Ultrastructural changes in tachyzoites (TEM) ([10]; 16 h): extensive clefts around the nucleus, nuclear membrane disappearance, and progressive degeneration of the parasites
- Mitochondrial membrane potential (ΔΨm) ([11]; 18 μg/mL for 4, 8, or 16 h): decreased the ΔΨm in T. gondii in a time-dependent manner
- Mitochondrial membrane potential (ΔΨm) ([11]; 18, 27, or 36 μg/mL for 8 h): the ΔΨm was reduced in a dose-dependent manner
- MDC labelling of autophagosomes (T. gondii tachyzoites [12]; 18 μg/mL for 4, 8, or 16 h): some parasites were positive for MDC
- MDC labelling of autophagosomes (T. gondii tachyzoites [12]; 18, 27, and 36 μg/mL for 8 h): autophagy was induced in T. gondii in a concentration-dependent manner
- DAPI staining of parasite nuclei [13]: diffuse fluorescent signal in the parasite nuclei
